Source: patent US20250127824A1, “BACTERIAL STRAIN USED IN THE PREVENTION AND/OR TREATMENT OF INFLAMMATORY PATHOLOGIES” (VERB BIOTICS, priority 2021, published 2025)

What was measured:
[1] = tested on: HT-29 colon adenocarcinoma line; assay: IL-8 secretion by TNF-α-stimulated HT-29 cells, supernatant with or without 5-ASA or Budesonide; type: cell-based; settings: TNF-α 5 ng/ml, 6 h, 10% supernatant
Description: The HT-29 cells (ECACC) were inoculated into 24-well plates at 3×10^5 cells per well in McCoy's 5A (Gibco) medium supplemented with 10% fetal calf serum (FCS, Gibco) and incubated at 37° C./5% […] for 24 h. The cells were washed with PBS-1× (Gibco) and cultivated for an additional 24 h in McCoy's 5A medium at 2% FCS. The cells were then stimulated for 6 hours with 5 ng/ml of TNF-α in the presence of 10% of supernatant in stationary phase of DSM 33715 or of bacterial culture medium as control (ctrl), whether or not in the presence of anti-inflammatory agents. 5-ASA (10 mM) and budesonide (20 μM) are molecules used in the treatment of inflammatory diseases, such as ulcerative colitis and Crohn's disease. After 6 h, the cell culture supernatants were collected and stored at −80° C. until the […] was quantified by ELISA. The IL-8 assay was carried out by BioLegend specific ELISA, according to the manufacturer's instructions. The absorbance at 460 nm was read using the FluoStar Omega microplate reader of BMG Labtech. Statistics: Sidak's multiple comparisons test. * p<0.05, ** p<0.01, *** […], **** p<0.0001. […]

JAK/STAT pathway = assay: JAK/STAT luciferase reporter in IFN-γ-stimulated HT-29 cells, supernatant with or without Tofacitinib; type: cell-based; settings: 10% supernatant, Tofacitinib 1 μM, 6 h
Description: HT-29 cells at a density of 3×10^5 cells/well, in 24-well plate, were transfected according to a reverse-transfection protocol, with 200 ng of pGL4 luc2P GAS-RE (IFN-γ-dependent JAK/STAT signaling pathway) and 10 ng of pRL-TK vector (Promega), using X-tremeGENE HP DNA transfection reagent with a 3:1 ratio (Roche). To summarize, the reactive/DNA transfection complexes were prepared in a final volume of 50 μl of McCoy's 5A without serum and without antibiotic, the appropriate amount of each plasmid was added and homogenized, and then the transfection agent was added (3:1). The transfection complexes were carefully mixed and incubated at room temperature for 15 minutes. After incubation, the transfection complexes were added to the freshly resuspended HT-29 cells at the appropriate density in McCoy's 5A medium supplemented with 10% FCS, and then the cell/transfection complex mixtures were gently homogenized and placed on plates. The plates were incubated for 24 h in a humid atmosphere at 5% C02 and the medium was then replaced with medium at 2% FCS for 12 h, after washing with PBS IX. […]
The activity of the luciferase Firefly was read. Then 50 μl reagent Stop&Glo was added and the measurement of the Renilla activity was read with the FLUOstar Omega plate reader (BMG Labtech). […]

Compound: Nc1ccc(O)c(C(=O)O)c1 [5-ASA]
- secretion of IL-8 reduced relative to the control (Panel A) ([1]; 5-ASA 10 mM): 38%

Compound: CCCC1O[C@@H]2C[C@H]3[C@@H]4CCC5=CC(=O)C=C[C@]5(C)[C@H]4[C@@H](O)C[C@]3(C)[C@]2(C(=O)CO)O1 (stereo partly drawn) [Budesonide]
- secretion of IL-8 reduced relative to the control (Panel B) ([1]; budesonide 20 μM): 38%

Compound: C[C@@H]1CCN(C(=O)CC#N)C[C@@H]1N(C)c1ncnc2[nH]ccc12 [Tofacitinib]
- decrease in the IFN-γ-induced activation of the JAK/STAT pathway (JAK/STAT pathway): 49%
